Here are results for one molecule from US20040076586A1, “Compositions and methods for delivering pharmaceutically active agents using nanoparticulates” (priority 2002, published 2004).

For the molecule `CCOC(=O)CCCCCOC(=O)c1c(I)c(NC(C)=O)c(I)c(NC(C)=O)c1I` [PH-50, 6-ethoxy-6-oxohexy-3,5-bis(acetylamino)-2,4,6-triiodobenzoate], the “half-life in the vascular structures” value (at functionally active concentrations, until metabolized by the liver) lay within 30 to 60 min. For the same molecule, under “in vivo”, the route of excretion result is recorded as “excreted from the body via the hepatic system rather than the renal system”.
